Test results reported in patent publication US8592172B2, “Bioluminescent assays using cyanobenzothiazole compounds” (Promega Corporation, priority 2010, dated 2013).

Test system: CYP1A2
Assay: Non-lytic assay with rat hepatocytes, compound 3019
Type: cell-based
Conditions: 10 nM TCDD 48 hours, 3 μM compound 3019

Clc1cc2c(cc1Cl)Oc1cc(Cl)c(Cl)cc1O2 [TCDD, 2,3,7,8-tetrachlorodibenzo-p-dioxin]
change of basal signal (CYP1A2 induction): significantly increased
